# Results as given in patent publication US7338948B2, “Use of quetiapine” (AstraZeneca AB, priority 2000, dated 2008).
# Legend:
# [1] = tested on: Conduct Disorder, Childhood Onset, Moderate Severity and Attention Deficit Hyperactivity Disorder (ADHD), Combined Type; experiment: Case report: patient with Conduct Disorder and ADHD treated with successive drugs
# Text: A person was diagnosed with ‘Conduct Disorder, Childhood Onset, Moderate Severity’ and ‘Attention Deficit Hyperactivity Disorder (ADHD), Combined Type’ (DSM-IV diagnostic criteria).
# [2] = Drug level printed in brackets after the dose in the case report; conditions: valproate 750 mg
# Protocol: In addition, they were given lithium at gradually increasing doses up to 1125 mg/day (1.7 ng/mL).
structure (smiles),measurement,setting,value
COC(=O)C(c1ccccc1)C1CCCCN1 (centres unmarked) [methylphenidate],clinical response (earlier treatment),[1]; methylphenidate taken before the amphetamine-based product and imipramine,eventually became ineffective
"OCCOCCN1CCN(C2=Nc3ccccc3Sc3ccccc32)CC1 [Quetiapine, 11-(4-[2-(2-hydroxyethoxy)ethyl]-1-piperazinyl)dibenzo[b,f][1.4]thiazepine]",clinical response after 90 days,[1]; after 90 days on quetiapine 1000 mg/day and amphetamine-based product 45 mg/day,complete resolution of previous symptoms
same,clinical response (psychiatric symptoms),"[1]; quetiapine 1000 mg/day (400 mg morning, 600 mg evening) with amphetamine-based product 45 mg/day",dramatic reduction of their psychiatric symptoms
same,clinical response (aggression),"[1]; quetiapine increased from 50 to 300 mg/day, with amphetamine-based product 60 mg/day",continued to demonstrate aggression
CCCC(CCC)C(=O)O [Valproate],drug level,[2],115 ng/mL
